Test results published in patent publication US20240043706A1, “ACTIVE ENERGY RAY-CURABLE INKJET INK FOR BEVERAGE CONTAINER, ACTIVE ENERGY RAY-CURABLE INKJET INK SET, AND IMAGE RECORDING METHOD” (FUJIFILM CORPORATION, priority 2021, published 2024).
Read-outs that look alike come from different tables or passages of the source.

Key:
[1] = Surface tension of surfactant added at 0.5% by mass to CTFA (plate method, 25° C.); assay type: physicochemical; conditions: neat CTFA
Protocol: In the present disclosure, the “polymerizable surfactant” refers to a surfactant having a polymerizable group. In the present disclosure, the “surfactant” refers to a compound in which, in a case of adding the compound in an addition amount of 0.5% by mass with respect to cyclic trimethylolpropane formal acrylate (hereinafter, referred to as “CTFA”), a surface tension is reduced 1 mN/m or more. The surface tension is measured by a plate method at 25° C. using a surface tension meter, and for example, can be measured using an automatic surface tension meter (product name “DY-300”) manufactured by Kyowa Interface Science Co., Ltd. A surface tension of CTFA is 36.5 mN/m. […]
With regard to a product in which the content of the surfactant is not 100% by mass (for example, a product containing a solvent other than the surfactant), the content of the surfactant is adjusted to 100% by mass, and the surface tension is measured using the surfactant alone. […]
In Tables 1 to 10, “Polyfunctional monomer/polymerizable surfactant” indicates the mass ratio of the content of the polyfunctional monomer to the content of the polymerizable surfactant. […] The surface tension reduction relative to CTFA was calculated based on the following expression.

[2] = Specific gravity of polymerizable monomer (gravimeter); assay type: physicochemical
Protocol: Among these, the polymerizable monomer preferably includes a polymerizable monomer having a specific gravity of 1.0 or less.
In the present disclosure, the specific gravity is measured using a gravimeter, for example, a high precision electronic gravimeter (model number “EW-300SG”, manufactured by Alfa Mirage).

Compound	Surface tension of CTFA [1]	Specific gravity [2]	Specific gravity ([2]; listed as DDDA)
C=CC(=O)OC1CCCCC1 [Cyclohexyl acrylate]	–	0.98 g/mL	–
C=CC(=O)OCCCCO [Example 4-HBA]	–	1.04 g/mL	–
C=CC(=O)O[C@@H]1C[C@H]2CC[C@]1(C)C2(C)C [Isobornyl acrylate]	–	0.987 g/mL	–
C=CC(=O)OCCCCCCCC(C)C [Isodecyl acrylate]	–	0.88 g/mL	–
C=CC(=O)N(C)C [N,N-Dimethylacrylamide]	–	0.964 g/mL	–
C=CC(=O)OCCCCCCCCC [Nonyl acrylate]	–	0.875 g/mL	–
C=CC(=O)OCCCCCCCCCCCCCCCCCC [Stearyl acrylate]	–	0.86 g/mL	–
C=CC(=O)OCCCCCCCC [n-Octyl acrylate]	–	0.894 g/mL	–
Tricyclohexyl acrylate	–	0.93 g/mL	–
t-Butylcyclohexyl acrylate	–	0.941 g/mL	–

Second part, the compound after the results:

Surface tension of CTFA [1]	Specific gravity [2]	Specific gravity ([2]; listed as DDDA)	Compound
36.5 mN/m	1.09 g/mL	–	C=CC(=O)OCC1(CC)COCOC1 [CTFA, cyclic trimethylolpropane formal acrylate]
–	0.968 g/mL	0.97 g/mL	C=CC(=O)OCCCCCCCCCCOC(=O)C=C [Decanediol diacrylate]
–	1.03 g/mL	–	C=CC(=O)OCCC(C)CCOC(=O)C=C [Example 3MPDDA]
–	0.885 g/mL	–	C=CC(=O)OCCCCCCC(C)C [Isononyl acrylate]
–	0.871 g/mL	–	C=CC(=O)OCCCCCCCCCCCCCCCC(C)C [Isostearyl acrylate]
–	0.875 g/mL	–	C=CC(=O)OCCCCCCCCCCCC [Lauryl acrylate]
–	0.89 g/mL	–	C=CC(=O)NC(C)C [N-Isopropyl acrylamide]
–	1.05 g/mL	–	C=CC(=O)OCCOCCOCCOC(=O)C=C [TEGDA]
–	1.00 g/mL	–	C=COCCOCCOCCOC=C [Triethylene glycol divinyl ether]
